Here are results for six molecules from ChEMBL document CHEMBL1155132, “Synthesis and structure-activity relationship of 1H-indole-3-carboxylic acid pyridine-3-ylamides: a novel series of 5-HT2C receptor antagonists” (Bioorg Med Chem Lett, 2008).

As a reminder, the IC50 is the concentration at which inhibition is half-maximal. The low end stands for higher potency, the high end for lower potency.

Each structure is given as a SMILES string.

The target of experiment [1] is T1, 5-hydroxytryptamine receptor 2C (Homo sapiens, UniProt P28335).
T1 sequence (P28335 whole entry): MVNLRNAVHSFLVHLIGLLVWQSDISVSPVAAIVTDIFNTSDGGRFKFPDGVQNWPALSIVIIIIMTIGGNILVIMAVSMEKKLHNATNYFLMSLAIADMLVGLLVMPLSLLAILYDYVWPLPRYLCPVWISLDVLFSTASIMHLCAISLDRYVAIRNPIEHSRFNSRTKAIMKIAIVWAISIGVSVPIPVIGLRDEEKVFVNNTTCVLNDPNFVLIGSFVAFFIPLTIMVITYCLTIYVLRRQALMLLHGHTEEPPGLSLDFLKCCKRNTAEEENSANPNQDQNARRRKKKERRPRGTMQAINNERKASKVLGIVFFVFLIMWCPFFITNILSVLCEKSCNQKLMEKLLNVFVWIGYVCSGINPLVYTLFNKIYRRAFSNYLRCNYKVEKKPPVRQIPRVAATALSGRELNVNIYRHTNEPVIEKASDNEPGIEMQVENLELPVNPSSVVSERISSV
The experiment can be described thus: Displacement of [3H]mesulergine at human cloned 5HT2C receptor expressed in CHOK1 cell. Type of experiment: cell-based, CHO-K1.

The target in experiment [2] is T2, D(4) dopamine receptor (Homo sapiens, UniProt P21917).
T2 sequence (P21917 whole entry): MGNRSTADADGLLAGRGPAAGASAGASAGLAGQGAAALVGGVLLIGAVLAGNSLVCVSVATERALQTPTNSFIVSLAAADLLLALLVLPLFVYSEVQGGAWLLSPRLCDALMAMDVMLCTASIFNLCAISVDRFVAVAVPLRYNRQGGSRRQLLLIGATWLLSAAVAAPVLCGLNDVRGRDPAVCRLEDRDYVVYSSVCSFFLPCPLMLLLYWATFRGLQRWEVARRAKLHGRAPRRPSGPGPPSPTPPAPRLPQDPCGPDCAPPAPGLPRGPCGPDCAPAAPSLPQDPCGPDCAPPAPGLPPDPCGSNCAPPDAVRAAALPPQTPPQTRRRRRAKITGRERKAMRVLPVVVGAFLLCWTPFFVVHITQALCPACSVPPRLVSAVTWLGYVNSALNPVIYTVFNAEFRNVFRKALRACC
The experiment in a line: Displacement of [3H]spiperone from human cloned dopamine D4 receptor. Background: Displacement assays read how much labelled ligand stays bound in the presence of the test substance.

Experiment [3] concerns the target T3, 5-hydroxytryptamine receptor 1A (Homo sapiens, UniProt P08908).
T3 sequence (P08908 whole entry): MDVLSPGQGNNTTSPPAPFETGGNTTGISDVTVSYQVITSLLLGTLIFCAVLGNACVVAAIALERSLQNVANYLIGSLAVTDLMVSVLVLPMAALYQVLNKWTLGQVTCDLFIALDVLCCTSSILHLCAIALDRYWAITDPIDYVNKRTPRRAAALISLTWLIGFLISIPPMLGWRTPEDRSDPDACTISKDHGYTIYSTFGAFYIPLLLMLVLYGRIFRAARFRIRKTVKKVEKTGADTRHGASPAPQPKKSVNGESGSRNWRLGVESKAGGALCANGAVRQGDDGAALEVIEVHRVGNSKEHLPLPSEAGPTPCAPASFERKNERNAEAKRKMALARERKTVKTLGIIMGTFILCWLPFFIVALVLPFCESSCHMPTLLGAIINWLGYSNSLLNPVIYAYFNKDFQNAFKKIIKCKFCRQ
The experiment can be described thus: Displacement of [3H]8-OH-DPAT from human cloned 5HT1A receptor.

Experiment [4] deals with 5-hydroxytryptamine receptor 7 (Homo sapiens, UniProt P34969). The experiment in a line: Displacement of [3H]LSD from human cloned 5HT7 receptor.
Sequence of 5-hydroxytryptamine receptor 7 (P34969 whole entry): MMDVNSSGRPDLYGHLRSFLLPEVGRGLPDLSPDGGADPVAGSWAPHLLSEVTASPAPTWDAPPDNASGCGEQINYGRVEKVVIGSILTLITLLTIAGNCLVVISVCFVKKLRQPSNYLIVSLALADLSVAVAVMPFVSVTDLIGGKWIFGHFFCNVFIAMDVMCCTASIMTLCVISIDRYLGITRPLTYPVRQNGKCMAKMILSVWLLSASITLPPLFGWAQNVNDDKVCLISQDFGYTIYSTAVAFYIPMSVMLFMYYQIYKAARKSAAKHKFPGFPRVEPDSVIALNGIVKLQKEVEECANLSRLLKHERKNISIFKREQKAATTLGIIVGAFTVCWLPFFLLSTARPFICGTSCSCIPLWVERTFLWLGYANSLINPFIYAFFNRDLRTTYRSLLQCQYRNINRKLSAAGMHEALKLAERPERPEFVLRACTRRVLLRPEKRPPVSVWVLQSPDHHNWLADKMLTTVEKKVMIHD
In experiment [5] the target is 5-hydroxytryptamine receptor 2A (Homo sapiens, UniProt P28223). The experiment can be described thus: Displacement of [3H]ketanserin from human cloned 5HT2A receptor.
Sequence of 5-hydroxytryptamine receptor 2A (P28223 whole entry): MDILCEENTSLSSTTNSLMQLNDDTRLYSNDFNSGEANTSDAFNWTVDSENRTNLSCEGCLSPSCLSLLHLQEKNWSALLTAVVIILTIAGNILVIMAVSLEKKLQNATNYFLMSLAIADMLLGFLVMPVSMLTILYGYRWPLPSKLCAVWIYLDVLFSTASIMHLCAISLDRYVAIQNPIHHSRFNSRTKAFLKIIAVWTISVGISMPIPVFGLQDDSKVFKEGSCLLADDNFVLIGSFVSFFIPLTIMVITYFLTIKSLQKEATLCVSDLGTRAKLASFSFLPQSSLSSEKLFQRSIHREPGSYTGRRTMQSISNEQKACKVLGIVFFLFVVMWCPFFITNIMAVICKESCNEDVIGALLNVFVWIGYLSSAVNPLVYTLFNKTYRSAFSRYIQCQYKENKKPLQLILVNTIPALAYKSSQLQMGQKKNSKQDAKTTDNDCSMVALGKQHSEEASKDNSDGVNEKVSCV
The target of experiment [6] is D(2) dopamine receptor (Homo sapiens, UniProt P14416). The experiment in a line: Displacement of [3H]spiperone from human cloned dopamine D2 receptor.
Sequence of D(2) dopamine receptor (P14416 whole entry): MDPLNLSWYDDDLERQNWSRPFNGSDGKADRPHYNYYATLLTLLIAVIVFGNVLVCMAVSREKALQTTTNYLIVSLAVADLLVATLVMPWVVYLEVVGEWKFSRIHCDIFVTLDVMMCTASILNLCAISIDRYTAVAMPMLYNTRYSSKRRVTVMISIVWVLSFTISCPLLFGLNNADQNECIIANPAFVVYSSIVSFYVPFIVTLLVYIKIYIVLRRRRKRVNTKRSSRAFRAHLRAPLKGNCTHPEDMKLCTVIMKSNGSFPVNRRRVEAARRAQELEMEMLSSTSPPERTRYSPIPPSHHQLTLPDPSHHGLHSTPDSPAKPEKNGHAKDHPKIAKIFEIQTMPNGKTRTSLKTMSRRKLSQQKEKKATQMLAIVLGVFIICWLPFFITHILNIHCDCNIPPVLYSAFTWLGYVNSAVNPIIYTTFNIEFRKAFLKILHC
Experiment [7] has as its target 5-hydroxytryptamine receptor 6 (Homo sapiens, UniProt P50406). The experiment can be described thus: Displacement of [3H]LSD from human cloned 5HT6 receptor.
Experiment [8] has as its target D(3) dopamine receptor (Homo sapiens, UniProt P35462). The experiment can be described thus: Displacement of [3H]spiperone from human cloned dopamine D3 receptor.

Sequence of 5-hydroxytryptamine receptor 6 (P50406 whole entry): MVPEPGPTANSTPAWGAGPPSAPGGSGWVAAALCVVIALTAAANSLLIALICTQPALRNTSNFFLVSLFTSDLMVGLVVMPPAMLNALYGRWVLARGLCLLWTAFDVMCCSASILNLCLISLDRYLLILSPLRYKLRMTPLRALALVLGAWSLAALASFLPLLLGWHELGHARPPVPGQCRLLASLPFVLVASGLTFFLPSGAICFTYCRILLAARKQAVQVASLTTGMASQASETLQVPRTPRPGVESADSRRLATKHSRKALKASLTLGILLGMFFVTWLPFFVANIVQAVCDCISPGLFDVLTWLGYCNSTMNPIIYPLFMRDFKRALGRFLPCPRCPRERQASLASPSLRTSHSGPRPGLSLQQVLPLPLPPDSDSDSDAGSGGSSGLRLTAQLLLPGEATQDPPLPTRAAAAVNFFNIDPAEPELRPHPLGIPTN
Sequence of D(3) dopamine receptor (P35462 whole entry): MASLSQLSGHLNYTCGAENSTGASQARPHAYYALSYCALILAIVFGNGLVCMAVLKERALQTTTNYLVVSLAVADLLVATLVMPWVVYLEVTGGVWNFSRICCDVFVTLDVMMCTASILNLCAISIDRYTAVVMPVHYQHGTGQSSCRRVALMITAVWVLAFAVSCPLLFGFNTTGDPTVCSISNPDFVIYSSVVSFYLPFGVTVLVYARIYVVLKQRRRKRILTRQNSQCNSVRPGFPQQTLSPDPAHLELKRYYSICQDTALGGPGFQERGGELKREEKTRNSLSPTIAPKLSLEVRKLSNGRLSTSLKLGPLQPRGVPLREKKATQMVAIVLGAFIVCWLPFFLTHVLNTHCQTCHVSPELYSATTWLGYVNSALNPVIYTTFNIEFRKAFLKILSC

In experiment [1], `Cc1ncccc1Oc1ccc(NC(=O)c2cc3ccccc3[nH]2)cn1` yielded an IC50 of 0.059 µM.
Same read-out and setting: to `O=C(Nc1ccc(OCc2ccccn2)nc1)c1c[nH]c2ccccc12` belongs 0.006 µM.
As to `O=C(Nc1ccc(Oc2cccnc2)nc1)c1c[nH]c2ccccc12`, the half-inhibitory concentration (IC50) in experiment [2] is over 10 µM; in experiment [3], over 10 µM; in experiment [4] it was over 10 µM; in experiment [5] it was over 1 µM; in experiment [6], over 10 µM; in experiment [7], over 10 µM. The IC50 in experiment [8] was over 10 µM.
Consider `O=C(Nc1ccc(Oc2cccnc2Cl)nc1)c1c[nH]c2ccccc12`, for which the IC50 in experiment [2] was over 10 µM.
In turn, `O=C(Nc1cccnc1)c1c[nH]c2ccccc12` displayed an IC50 in experiment [1] of over 10 µM.
In turn, `Cc1cc2c(cc1C(F)(F)F)N(C(=O)Nc1ccc(Oc3cccnc3C)nc1)CC2` [SB-243213] returned an IC50 in experiment [2] of over 1 µM.
